Test results taken from paper PMC6037852, “Design of Diarylheptanoid Derivatives as Dual Inhibitors Against Class IIa Histone Deacetylase and β-amyloid Aggregation” (Frontiers in Pharmacology, 2018).

What was measured:
[1] = target: T1, HDAC7 (Homo sapiens, UniProt Q8WUI4); test: HDAC fluorometric activity assay, HDAC7; details: IC50 Class IIa HDAC7, fluorogenic HDAC class IIa substrate 10 μM
T1 sequence (Q8WUI4 1-952): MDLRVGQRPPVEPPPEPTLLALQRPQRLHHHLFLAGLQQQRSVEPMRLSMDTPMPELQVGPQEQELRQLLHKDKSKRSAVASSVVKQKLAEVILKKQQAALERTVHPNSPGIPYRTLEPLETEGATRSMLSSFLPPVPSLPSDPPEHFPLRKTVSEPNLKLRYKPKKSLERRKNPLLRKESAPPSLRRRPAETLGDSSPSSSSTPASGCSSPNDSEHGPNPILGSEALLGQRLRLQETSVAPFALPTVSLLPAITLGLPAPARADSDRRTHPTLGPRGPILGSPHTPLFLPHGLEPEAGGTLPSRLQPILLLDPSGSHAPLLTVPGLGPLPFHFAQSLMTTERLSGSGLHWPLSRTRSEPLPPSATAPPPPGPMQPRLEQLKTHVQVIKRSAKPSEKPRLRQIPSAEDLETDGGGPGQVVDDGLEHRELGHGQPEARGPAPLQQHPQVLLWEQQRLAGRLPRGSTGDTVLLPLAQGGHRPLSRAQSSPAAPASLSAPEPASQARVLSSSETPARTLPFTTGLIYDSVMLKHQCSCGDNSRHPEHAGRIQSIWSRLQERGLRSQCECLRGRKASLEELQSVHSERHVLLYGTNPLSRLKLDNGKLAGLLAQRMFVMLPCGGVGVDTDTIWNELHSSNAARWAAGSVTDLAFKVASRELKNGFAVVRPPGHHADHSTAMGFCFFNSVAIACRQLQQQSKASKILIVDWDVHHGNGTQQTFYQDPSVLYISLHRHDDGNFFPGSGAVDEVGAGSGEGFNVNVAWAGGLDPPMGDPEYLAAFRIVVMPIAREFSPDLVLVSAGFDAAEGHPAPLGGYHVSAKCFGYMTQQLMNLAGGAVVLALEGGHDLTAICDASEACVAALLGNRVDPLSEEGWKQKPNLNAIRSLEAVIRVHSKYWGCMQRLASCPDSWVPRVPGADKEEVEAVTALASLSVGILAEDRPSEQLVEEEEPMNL

[2] = target: T2, HDAC4 (Homo sapiens, UniProt P56524); test: HDAC fluorometric activity assay, HDAC4; assay type: biochemical; details: Boc-Lys(TFA)-AMC 10 μM; read-out: IC50 Class IIa HDAC4
T2 construct: Genes encoding HDAC4 (residues 648–1057) flanked with NdeI and EcoRI sites; made in house; host or cells: E. coli BL21(DE3)
T2 sequence (P56524 648-1057): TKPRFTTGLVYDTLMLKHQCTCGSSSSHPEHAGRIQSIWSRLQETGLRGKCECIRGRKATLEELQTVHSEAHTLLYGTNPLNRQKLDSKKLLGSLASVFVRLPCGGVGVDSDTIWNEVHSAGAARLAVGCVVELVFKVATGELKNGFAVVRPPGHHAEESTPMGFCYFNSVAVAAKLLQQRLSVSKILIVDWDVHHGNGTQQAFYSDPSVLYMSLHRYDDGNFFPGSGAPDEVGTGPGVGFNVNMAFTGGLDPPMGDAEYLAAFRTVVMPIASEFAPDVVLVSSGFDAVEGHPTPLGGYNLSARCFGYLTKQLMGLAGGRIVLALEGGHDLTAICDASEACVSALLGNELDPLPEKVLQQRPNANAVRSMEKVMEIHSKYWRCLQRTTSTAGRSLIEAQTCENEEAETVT
Experimental: Proteins were expressed in BL21(DE3) cells by overnight induction with IPTG (1 mM) at 20–25°C and purified from cleared cell lysates by sequential chromatography on Ni-Sepharose 6 fast flow, Mono Q 5/50 GL, and Superdex 75 10/300 GL columns (GE Healthcare). Protein concentrations were quantified with Bradford Reagent (Bio-Rad).
Enzyme, inhibitors and substrate were diluted with HDAC buffer (15 mM Tris-HCl pH 8.1, 0.25 mM EDTA, 250 mM NaCl, 10% v:v glycerol). Briefly, 10 μL diluted HDAC, i.e., HeLa nuclear extract (Enzo), HDAC6 (BPS), HDAC4, HDAC5 (BPS), HDAC7 (BPS) and HDAC9 (BPS), as well as 50 μL of testing compounds at different concentrations were added to each well of a 96-well microtiter plate and pre-incubated at 30°C for 5 min. […] The fluorescence in wells without test compounds (0.1% DMSO, negative control) was set as 100% enzymatic activity and the fluorescence in wells with enzyme eliminated was set as 0% enzymatic activity. The fluorescence ratio of test compounds to negative control was defined as percentage of remaining enzyme activity. The IC50 values were calculated by linear regression of the data. All experiments were performed in triplicate.

[3] = test system: SH-SY5Y cells; test: Cytotoxicity effect on SH-SY5Y cells, alamar blue cell viability assay; assay type: cell-based, human; details: 40 μM, 24 h
Experimental: (§1) SH-SY5Y cells were kindly provided by Professor Zhi-Hong Wen (National Sun Yat-sen University) and cultured in DMEM/F12 (Gibco, Grand Island, NY, United States) supplemented with 10% heat-inactivated fetal bovine serum and penicillin (100 U/ml)/streptomycin (100 μg/ml) (Invitrogen, Carlsbad, CA, United States) at 37°C in an atmosphere of 5% CO2.
Cell viability was assessed using the alamar blue (7-hydroxy-10-oxidophenoxazin-10-ium-3-one) cell viability assay in 6 replicates as described previously ([Feng et al., 2016]). Briefly, 5 × 10^3 cells/well were seeded in 96-well flat-bottomed plates; 24 h later, cells were treated with compounds or DMSO as control. After 24 h of incubation, the medium was removed, 100 μL medium containing 10 μL of alamar blue was added, and cells were incubated in the 5% CO2 incubator at 37°C for 4 h. Absorbance at 570 nm was determined by Synergy HT microplate reader. The results were averaged over three different independent experiments. The cell viability was also evaluated by trypan blue exclusion test.

[4] = test system: SH-SY5Y cells; test: Neuroprotection against H2O2-induced neurotoxicity on SH-SY5Y cells, MTT assay; assay type: cell-based; details: Homo sapiens, compound 40 μM, 500 μM H2O2, 3 h, percentage of control, H2O2 alone 34.6%, read-out: Cell viability after H2O2 exposure
Experimental: as §1
H2O2-induced neurotoxicity on SH-SY5Y cells was used to evaluate the neuroprotective effect ([Rafatian et al., 2012]; [Omar et al., 2017]). Briefly, a density of 2 × 10^4 SH-SY5Y cells were seeded per well in 96-well plates. After 24 h of incubation, the medium was replaced with serum free medium containing H2O2 at a concentration of 500 μM and treated with different concentrations of compounds (40, 20, and 10 μM). SH-SY5Y cells were also cultured without any treatment as control group and results were indicated by percentage of control. After 3 h, cell viability was performed by MTT assay. The cells were treated with MTT (5 mg/ml in PBS) for 4 h at 37°C. The formazan crystals were generated by viable mitochondrial succinate dehydrogenase from MTT. The supernatant was then aspirated off and the formazan crystals were dissolved with DMSO. Absorbance at 570 nm was determined by Tecan Sunrise microplate reader. The trypan blue exclusion test was also used to evaluate the neuroprotection.

Row | Compound | IC50 [1] [µM] | IC50 [2] [µM] | Cytotoxicity to SH-SY5Y cells [3] | viability at 40 µM [4] [%]
1 | O=C(CCc1ccccc1)CCc1ccc(O)c(O)c1 [Compound 8c] | 8.9 ± 0.4 | > 40 |  | 
2 | O=C(CCCCc1ccccc1)CCc1ccccc1 [Compound 5a] | > 40 | > 40 |  | 
3 | O=C(/C=C/c1ccc(O)c(O)c1)c1ccccc1 [Compound 7a] | 9.6 ± 0.2 | 31.1 ± 0.8 |  | 
4 | O=C(CCCCc1ccccc1)CCc1ccc(O)cc1 [Compound 5b] | > 40 | > 40 |  | 
5 | O=C(CCCCc1ccccc1)CCc1cccc(O)c1O [Compound 5e] | 8.7 ± 0.7 | 35.9 ± 0.1 | did not show significant cytotoxicity | 58.8
6 | O=C(CCc1ccc(O)c(O)c1)c1ccccc1 [Compound 8a] | 12 ± 1 | > 40 |  | 
7 | COc1cc(/C=C/C(=O)CCCCc2ccccc2)ccc1O [Compound 4k] | > 40 | > 40 |  | 
8 | O=C(CCCCc1ccccc1)CCc1ccc(O)c(Cl)c1 [Compound 5g] | 30.7 ± 0.7 | 29.9 ± 2.3 |  | 
9 | O=C(/C=C/c1cccc(O)c1)CCCCc1ccccc1 [Compound 4d] | > 40 | > 40 |  | 
10 | O=C(CCc1ccc(O)c(O)c1)Cc1ccccc1 [Compound 8b] | 13.7 ± 0.7 | > 40 |  | 
11 | O=C(/C=C/c1cccc(O)c1O)CCCCc1ccccc1 [Compound 4e] | 8.6 ± 1 | 38.8 ± 0.1 |  | 
12 | O=C(/C=C/c1ccc(O)c(F)c1)CCCCc1ccccc1 [Compound 4f] | > 40 | > 40 |  | 
13 | O=C(CCCCc1ccccc1)CCc1ccc(O)c(O)c1 [Compound 5c] | 4.3 ± 0.5 | 18.1 ± 0.8 | did not show significant cytotoxicity | 61.3
14 | O=C(CCCc1ccccc1)CCc1ccc(O)c(O)c1 [Compound 8d] | 7.4 ± 1.6 | > 40 |  | 
15 | O=C(/C=C/c1ccc(O)c(O)c1)CCc1ccccc1 [Compound 7c] | 13.6 ± 1.1 | 38.3 |  | 
16 | O=C(/C=C/c1ccc(O)cc1)CCCCc1ccccc1 [Compound 4b] | > 40 | > 40 |  | 
17 | O=C(/C=C/c1cc(O)c(O)c(O)c1)CCCCc1ccccc1 [Compound 4j] | 3.8 ± 0.4 | > 40 | did not show significant cytotoxicity | 88.3
18 | O=C(/C=C/c1ccc(O)c(O)c1)CCCc1ccccc1 [Compound 7d] | 9.4 ± 0.2 | 35 ± 2.8 |  | 
19 | O=C(CCCCc1ccccc1)CCc1ccc(O)c(Br)c1 [Compound 5h] | > 40 | > 40 |  | 
20 | O=C(/C=C/c1ccc(O)c([N+](=O)[O-])c1)CCCCc1ccccc1 [Compound 4i] | 32.7 ± 2.1 | > 40 |  | 
21 | O=C(/C=C/c1ccc(O)c(Cl)c1)CCCCc1ccccc1 [Compound 4g] | > 40 | > 40 |  | 
22 | O=C(/C=C/c1ccc(O)c(O)c1)Cc1ccccc1 [Compound 7b] | 15.4 ± 3 | 39.8 ± 0.2 |  | 
23 | O=C(CCCCc1ccccc1)CCc1ccc(O)c(F)c1 [Compound 5f] | > 40 | > 40 |  | 
24 | COc1cc(CCC(=O)CCCCc2ccccc2)ccc1O [Compound 5i] | > 40 | > 40 |  | 
25 | O=C(/C=C/c1ccccc1)CCCCc1ccccc1 [Compound 4a] | > 40 | > 40 |  | 
26 | O=C(CCCCc1ccccc1)CCc1cccc(O)c1 [Compound 5d] | > 40 | > 40 |  | 
27 | O=C(/C=C/c1ccc(O)c(Br)c1)CCCCc1ccccc1 [Compound 4h] | > 40 | > 40 |  | 
28 | O=C(/C=C/c1ccc(O)c(O)c1)CCCCc1ccccc1 [Compound 4c] | 8.4 ± 0.3 | 30.5 ± 0.7 |  | 
